Literature values as cited in US11553715B2, “Synthesis and formulation of lignin derived compounds as treatment of plant diseases” (University of Kentucky Research Foundation, priority 2019, dated 2023).

## COc1cc(C=O)ccc1O [Vanillin]
bacteria
  antimicrobial concentration as a food preservative: 1.5 mg/mL
yeast
  antimicrobial concentration as a food preservative: 0.76 mg/mL
